Reference: patent US11446276B2, “Extreme low dose THC as a therapeutic and prophylactic agent for Alzheimer's disease” (University of South Florida, priority 2015, dated 2022)
Read-outs that look alike come from different tables or passages of the source.

Key:
[1] = tested on: tau protein in PC12 cells; conditions: cited from earlier work
[2] = tested on: Aβ40 in N2a/AβPPswe cells; test: Aβ40 ELISA of N2a/AβPPswe cells treated with THC or caffeine; format: cell-based, human; conditions: THC 0.25-2500 nM or caffeine 0.625-10 μM
Aβ [3] = conditions: cited from earlier work
GSK-3β phosphorylation = conditions: melatonin 100 μM at the cellular level; cited from earlier work
Aβ aggregation [4] = conditions: PC12 cells study; cited from earlier work
[5] = tested on: Aβ in neuroblastoma cells; conditions: cited from earlier work
Aβ aggregation [6] = conditions: neuronal cells; cited from earlier work
Aβ [7] = conditions: transgenic model of AD; cited from earlier work
AβPP = conditions: transgenic model of AD; cited from earlier work
Aβ [8] = conditions: frontal cortex; transgenic mice; cited from earlier work
Aβ in N2A cells = conditions: cited from earlier work
Aβ [9] = conditions: entorhinal cortex and hippocampus; transgenic mice model of AD; cited from earlier work
Aβ [10] = conditions: rats; cited from earlier work
Aβ [11] = conditions: rat model of sporadic AD; cited from earlier work
Aβ1-41 = conditions: transgenic mice; cited from earlier work
[12] = tested on: mitochondrial complexes I and IV; conditions: in vivo; cited from earlier work
[13] = tested on: hepatic mitochondrial DNA; conditions: mice; cited from earlier work
mitochondrial function = conditions: Alzheimer's mice; cited from earlier work
tau or neurofilament = conditions: induced by wortmannin, calyculin A, okadaic acid; N2a and SH-SY5Y cells; cited from earlier work
Aβ in N2a/AβPPswe cells = test: Sandwich ELISA of Aβ in N2a/AβPPswe cells treated with THC and CB1 inhibitor rimonabant; format: cell-based, human
Method: The mechanism of action was elucidated for THC's effect on Aβ levels using a sandwich ELISA assay. N2a/AβPPswe cells, as discussed in Example 1, were suspended to 2×10^5/mL, 3 mL plated into each well, and grown in DMEM with 10% fetal bovine serum, 100 U/mL penicillin, 100 μg/mL streptomycin, and 400 μg/mL G418 (Invitrogen), at 37° C. in the presence of 5% CO2. N2a/AβPPswe cells were subcultured using trypsin, and pipetted numerous times to ensure cells were separated into individual cells. Cells were counted, as provided in Example 1, and proper amount of cell medium and fresh medium was added into new flasks according to the ratio of dilution. Pipetting was performed 10 times to homogenize cells, and 3 mL of cells were seeded into medium into each 6 well plate. When one pipette was used up, the cells were mixed in the flask before using them for the next pipette. Compounds were suspended in DMSO.
12 hours after cells were plated, cells were treated with 25 nM of Δ9-THC (T4764-1ML Sigma Aldrich, Merck KGaA; Darmstadt, Germany), with the known inhibitor of the CB1 receptor, rimonabant, at 0 μM, 100 μM, 10 μM, 1 μM, or 0.1 μM rimonabant. Untreated N2a/AβPPswe cells were used as a control. Treatment was then washed out, i.e. the medium was then removed from the cultures and 3 mL of media containing the treatment compounds were added. Cells were collected at 12 hours afterwards, 48 hours afterwards, 60 hours afterwards, and 72 hours afterwards, and ELISA was conducted on the cells.
ELISA assay was performed on the cells using 50 μL of goat anti-PWT1-42 antibody solution, which was incubated overnight, followed by a 1-hour incubation with 0.1% I-block buffer. The tissue culture supernatant was diluted 1:10 with diluent buffer containing a protease inhibitor. Standards were prepared by serial dilution, as provided in Example 1. The plate was washed and 50 μL of sample or standard was added with triplication. 50 μL of both Biosource 40/42 (HS) (primary antibody) Aβ and a standard solution was added to each well and incubated for 3 hours followed by 5× wash with PBST. […]

C=C(C)[C@@H]1CCC(C)=C[C@H]1c1c(O)cc(CCCCC)cc1O [Cannabidiol]
β-amyloid-induced tau protein hyperphosphorylation [1]: inhibits β-amyloid-induced tau protein hyperphosphorylation

Cn1c(=O)c2c(ncn2C)n(C)c1=O [caffeine]
Aβ40 levels versus control ([2]; 6 hours, FIG. 1A): significant reduction
Aβ40 levels versus control ([2]; 24 hours, FIG. 1B): exponential drop
Aβ40 levels versus control ([2]; 48 hours, FIG. 1C): significant difference
Serum Aβ40 levels (Aβ [3]; mouse model): lower serum Aβ40 levels
Brain Aβ levels (Aβ [3]; transgenic mouse model): lowering brain Aβ levels

COc1ccc2[nH]cc(CCNC(C)=O)c2c1 [melatonin]
Decreased GSK-3β phosphorylation (GSK-3β phosphorylation): about 40%
Aβ aggregation (Aβ aggregation [4]): prevents Aβ aggregation
Aβ levels [5]: reduction of Aβ levels
Aβ aggregation (Aβ aggregation [6]): reduced Aβ aggregation
Aβ levels (Aβ [7]): reduction in Aβ levels
AβPP levels (AβPP): no change in AβPP levels
Aβ levels (Aβ [8]): reduces Aβ levels
Aβ levels (Aβ in N2A cells): reduced Aβ levels
Aggregation of Aβ (Aβ [9]): decreased the aggregation of Aβ
Hippocampal Aβ generation (Aβ [10]): reduced hippocampal Aβ generation
Aβ accumulation (Aβ [11]): attenuates Aβ accumulation
Aβ1-41 levels (Aβ1-41): decreased Aβ1-41 levels
Inhibition of mitochondrial complexes I and IV induced by ruthenium red [12]: prevented the inhibition of mitochondrial complexes I and IV
Ethanol-induced hepatic mitochondrial DNA depletion [13]: protects against ethanol-induced hepatic mitochondrial DNA depletion
Mitochondrial function (mitochondrial function): restores mitochondrial function
Tau or neurofilament hyperphosphorylation (tau or neurofilament): efficiently attenuates tau or neurofilament hyperphosphorylation

Cc1c(C(=O)NN2CCCCC2)nn(-c2ccc(Cl)cc2Cl)c1-c1ccc(Cl)cc1 [rimonabant]
Block of THC's Aβ lowering by CB1 antagonist (Aβ in N2a/AβPPswe cells; antagonist at 10^−4 M with 25 nM THC): partially blocked
Block of THC's Aβ lowering by CB1 antagonist (Aβ in N2a/AβPPswe cells; antagonist at 10^−7 M with 25 nM THC): inhibition function is lost
